What follows are compounds tested against T1, human TRH-DE (Homo sapiens, UniProt Q9UKU6) (assay: TRH-DE inhibition test (RapidFire MS measurement of product Cyclo (His-Pro))). Details: membrane fraction of Expi 293 cells expressing human TRH-DE; 10 μM TRH substrate; room temperature, 2 hours; 16-point concentration test.
T1 construct: expressed in transfected cells; host or cells: Expi 293 cells (transient expression), membrane fraction
T1 sequence (Q9UKU6 1-1069): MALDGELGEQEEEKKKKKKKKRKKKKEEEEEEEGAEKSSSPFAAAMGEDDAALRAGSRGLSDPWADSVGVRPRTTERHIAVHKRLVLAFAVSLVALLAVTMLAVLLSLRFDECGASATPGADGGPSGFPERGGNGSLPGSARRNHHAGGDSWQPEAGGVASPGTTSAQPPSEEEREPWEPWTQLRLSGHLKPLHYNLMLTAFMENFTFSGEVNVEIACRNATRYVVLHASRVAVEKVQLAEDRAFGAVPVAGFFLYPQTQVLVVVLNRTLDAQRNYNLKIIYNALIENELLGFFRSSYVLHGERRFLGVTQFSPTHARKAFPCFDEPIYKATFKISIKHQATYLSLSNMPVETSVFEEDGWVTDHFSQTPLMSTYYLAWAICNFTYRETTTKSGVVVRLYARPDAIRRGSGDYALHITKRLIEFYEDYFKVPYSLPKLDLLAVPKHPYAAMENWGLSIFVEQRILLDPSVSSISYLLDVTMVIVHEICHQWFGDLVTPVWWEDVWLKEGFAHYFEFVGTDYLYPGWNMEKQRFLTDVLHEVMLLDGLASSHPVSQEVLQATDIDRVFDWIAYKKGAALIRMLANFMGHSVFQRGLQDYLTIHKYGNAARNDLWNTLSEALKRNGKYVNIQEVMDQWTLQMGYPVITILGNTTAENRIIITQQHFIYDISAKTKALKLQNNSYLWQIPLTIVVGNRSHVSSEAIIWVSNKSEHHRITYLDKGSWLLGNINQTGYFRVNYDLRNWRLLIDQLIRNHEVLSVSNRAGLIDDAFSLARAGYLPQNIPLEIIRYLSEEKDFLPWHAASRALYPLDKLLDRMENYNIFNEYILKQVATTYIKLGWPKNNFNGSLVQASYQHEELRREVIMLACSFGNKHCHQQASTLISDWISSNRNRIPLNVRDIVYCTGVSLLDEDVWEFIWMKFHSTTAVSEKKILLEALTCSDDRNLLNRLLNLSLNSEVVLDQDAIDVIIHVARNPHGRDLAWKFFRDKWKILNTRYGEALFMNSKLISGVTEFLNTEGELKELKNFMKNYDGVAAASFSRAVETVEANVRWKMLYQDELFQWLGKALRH
Assay type: biochemical
How it was run: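 Membrane fraction from Expi 293 cells transiently expressing human TRH-DE, at 4 μg/ml in phosphate buffer pH 7.4 with 200 μM bacitracin, reacted with compound and 10 μM substrate for 2 h at room temperature. Cyclo(His-Pro) measured by RapidFire MS against an isotope internal standard. IC50 from 16-point curves.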
`C[C@@H]1CNC(=O)N1C1CC2(C1)CN(S(=O)(=O)c1ccccc1F)C2` [Example 435, (5R)-1-[2-(2-fluorophenyl)sulfonyl-2-azaspiro[3.3]heptan-6-yl]-5-methylimidazolidin-2-one] showed an IC50 of 0.492 µM. In the case of `CC1CSCC(=O)N1C1CC2(C1)CN(S(=O)(=O)c1ccccc1F)C2` (centres unmarked) [Example 441, 4-[2-(2-fluorophenyl)sulfonyl-2-azaspiro[3.3]heptan-6-yl]-5-methylthiomorpholin-3-one], the IC50 is reported as 0.247 µM. Work on `C[C@@H]1CCNCC(=O)N1C1CC2(C1)CN(S(=O)(=O)c1ccccc1F)C2` [Example 442, (7R)-1-[2-(2-fluorophenyl)sulfonyl-2-azaspiro[3.3]heptan-6-yl]-7-methyl-1,4-diazepan-2-one] yielded an IC50 of 0.551 µM. `C[C@@H]1CCN(CC2CC2)CC(=O)N1C1CC2(C1)CN(S(=O)(=O)c1ccccc1F)C2` [Example 443, (7R)-4-(cyclopropylmethyl)-1-[2-(2-fluorophenyl)sulfonyl-2-azaspiro[3.3]heptan-6-yl]-7-methyl-1,4-diazepan-2-one] gave an IC50 of 0.157 µM. In the case of `C[C@@H]1CCN(C)CC(=O)N1C1CC2(C1)CN(S(=O)(=O)c1ccccc1F)C2` [Example 444], the IC50 is reported as 0.789 µM. `C[C@@H]1CCN(Cc2ccccc2)CC(=O)N1C1CC2(C1)CN(S(=O)(=O)c1ccccc1F)C2` [Example 446] showed an IC50 of 0.171 µM. For `C[C@@H]1CCN(C2CCOCC2)CC(=O)N1C1CC2(C1)CN(S(=O)(=O)c1ccccc1F)C2` [Example 447], the IC50 was 0.403 µM. In the case of `C[C@@H]1CCN(CCC(F)(F)F)CC(=O)N1C1CC2(C1)CN(S(=O)(=O)c1ccccc1F)C2` [Example 448], the IC50 is reported as 0.474 µM. In the case of `C[C@@H]1CCN(C(=O)c2cc[nH]n2)CC(=O)N1C1CC2(C1)CN(S(=O)(=O)c1ccccc1F)C2` [Example 449], the IC50 is reported as 0.065 µM. `C[C@@H]1CCN(C(=O)c2cccs2)CC(=O)N1C1CC2(C1)CN(S(=O)(=O)c1ccccc1F)C2` [Example 450] showed an IC50 of 0.081 µM. For `C[C@@H]1CCN(C(=O)c2ccc3ccccc3c2)CC(=O)N1C1CC2(C1)CN(S(=O)(=O)c1ccccc1F)C2` [Example 451], the IC50 was 0.076 µM. Compound `C[C@@H]1CCN(C(=O)C2(F)CC2)CC(=O)N1C1CC2(C1)CN(S(=O)(=O)c1ccccc1F)C2` [Example 452] has an IC50 of 0.088 µM. Work on `COCCC(=O)N1CC[C@@H](C)N(C2CC3(C2)CN(S(=O)(=O)c2ccccc2F)C3)C(=O)C1` [Example 453] yielded an IC50 of 0.348 µM. `C[C@@H]1CCN(C(=O)c2ccccc2)CC(=O)N1C1CC2(C1)CN(S(=O)(=O)c1ccccc1F)C2` [Example 454] gave an IC50 of 0.07 µM. For `C[C@@H]1CCN(S(C)(=O)=O)CC(=O)N1C1CC2(C1)CN(S(=O)(=O)c1ccccc1F)C2` [Example 455, (7R)-1-[2-(2-fluorophenyl)sulfonyl-2-azaspiro[3.3]heptan-6-yl]-7-methyl-4-methylsulfonyl-1,4-diazepan-2-one], the IC50 was 0.291 µM. `C[C@@H]1CCN(c2ccccn2)CC(=O)N1C1CC2(C1)CN(S(=O)(=O)c1ccccc1F)C2` [Example 456, (7R)-1-[2-(2-fluorophenyl)sulfonyl-2-azaspiro[3.3]heptan-6-yl]-7-methyl-4-pyridin-2-yl-1,4-diazepan-2-one] gave an IC50 of 0.09 µM. `CC1CCOCC(=O)N1C1CC2(C1)CN(S(=O)(=O)c1ccccc1F)C2` (centres unmarked) [Example 457, 4-[2-(2-fluorophenyl)sulfonyl-2-azaspiro[3.3]heptan-6-yl]-5-methyl-1,4-oxazepan-3-one] showed an IC50 of 0.171 µM. `C[C@@H]1COCC(=O)N1C1CC2(C1)CN(S(=O)(=O)c1ccccc1F)C2` [Example 458, (5R)-4-[2-(2-fluorophenyl)sulfonyl-2-azaspiro[3.3]heptan-6-yl]-5-methylmorpholin-3-one] was tested, and the IC50 was 0.28 µM. For `CC1CCCCC(=O)N1C1CC2(C1)CN(S(=O)(=O)c1ccccc1F)C2` (centres unmarked) [Example 459, 1-[2-(2-fluorophenyl)sulfonyl-2-azaspiro[3.3]heptan-6-yl]-7-methylazepan-2-one], the IC50 was 0.176 µM. `C[C@@H]1COCCC(=O)N1C1CC2(C1)CN(S(=O)(=O)c1ccccc1F)C2` [Example 460, (3R)-4-[2-(2-fluorophenyl)sulfonyl-2-azaspiro[3.3]heptan-6-yl]-3-methyl-1,4-oxazepan-5-one] gave an IC50 of 0.424 µM.
